Experimental data published in PubChem BioAssay AID330 (DTP/NCI, 2004).
Where “and” joins values, the source holds several entries; their conditions need not be identical. Equal values may be shown once. Toxic doses and inconclusive results are not listed.

System: P388 leukemia ip, CD2F1 mice, survival T/C
Assay: NCI In Vivo Anticancer Drug Screen. Data for tumor model P388 Leukemia (intraperitoneal) in CD2F1 (CDF1) mice
Details: endpoint: median survival time, higher = longer survival
In short: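 Mice carrying the transplanted tumor received test compound or vehicle. Survival was recorded in each group, and the value is the treated-group measurement divided by that of the vehicle-treated control group.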

[1] = dose: 25.0 mg/kg/injection, schedule: Q01DX009 (ip), vehicle: saline with Tween-80
[2] = dose: 50.0 mg/kg/injection, schedule: Q01DX009 (ip), vehicle: saline with Tween-80
[3] = dose: 100.0 mg/kg/injection, schedule: Q01DX009 (ip), vehicle: saline with Tween-80
[4] = dose: 100.0 mg/kg/injection, schedule: Q04DX002 (ip), vehicle: saline with Tween-80
[5] = dose: 60.0 mg/kg/injection, schedule: Q01DX005 (ip), vehicle: saline with Tween-80
[6] = dose: 120.0 mg/kg/injection, schedule: Q01DX005 (ip), vehicle: saline with Tween-80
[7] = dose: 240.0 mg/kg/injection, schedule: Q01DX005 (ip), vehicle: saline with Tween-80
[8] = dose: 50.0 mg/kg/injection, schedule: Q01DX005 (ip), vehicle: Klucel (hydroxypropylcellulose) (HPC)
[9] = dose: 100.0 mg/kg/injection, schedule: Q01DX005 (ip), vehicle: Klucel (hydroxypropylcellulose) (HPC)
[10] = dose: 200.0 mg/kg/injection, schedule: Q01DX005 (ip), vehicle: Klucel (hydroxypropylcellulose) (HPC)
[11] = dose: 50.0 mg/kg/injection, schedule: Q01DX009 (ip), vehicle: saline
[12] = dose: 100.0 mg/kg/injection, schedule: Q01DX009 (ip), vehicle: saline
[13] = dose: 200.0 mg/kg/injection, schedule: Q01DX009 (ip), vehicle: saline
[14] = dose: 200.0 mg/kg/injection, schedule: Q01DX009 (ip), vehicle: saline with Tween-80
[15] = dose: 50.0 mg/kg/injection, schedule: Q01DX005 (ip), vehicle: saline with Tween-80
[16] = dose: 100.0 mg/kg/injection, schedule: Q01DX005 (ip), vehicle: saline with Tween-80
[17] = dose: 50.0 mg/kg/injection, schedule: Q01DX009 (ip), vehicle: Klucel (hydroxypropylcellulose) (HPC)
[18] = dose: 100.0 mg/kg/injection, schedule: Q01DX009 (ip), vehicle: Klucel (hydroxypropylcellulose) (HPC)

## O=[N+]([O-])c1cccn2nnnc12
dose: 3.12 mg/kg/injection, schedule: Q01DX009 (ip), vehicle: saline with Tween-80
  T/C: 102 % of control
dose: 6.25 mg/kg/injection, schedule: Q01DX009 (ip), vehicle: saline with Tween-80
  T/C: 87 % of control
dose: 12.5 mg/kg/injection, schedule: Q01DX009 (ip), vehicle: saline with Tween-80
  T/C: 93 % of control
[1]
  T/C: 95 % of control
[2]
  T/C: 117 % of control and 96 % of control
[3]
  T/C: 119 % of control

## O=C1CC2CCC1CC2c1cnc[nH]1 (centres undefined)
dose: 25.0 mg/kg/injection, schedule: Q04DX002 (ip), vehicle: saline with Tween-80
  T/C: 93 % of control
dose: 50.0 mg/kg/injection, schedule: Q04DX002 (ip), vehicle: saline with Tween-80
  T/C: 100 % of control
[4]
  T/C: 102 % of control

## Nc1ccccc1C(=O)CCc1c[nH]c2ccccc12
[5]
  T/C: 96 % of control
[6]
  T/C: 90 % of control
[7]
  T/C: 86 % of control

## COC(=O)NP1(=O)NCc2ccccc2CN1
[8]
  T/C: 100 % of control
[9]
  T/C: 94 % of control
[10]
  T/C: 94 % of control

## COc1ccc(OC/C(C)=N\NS(=O)(=O)c2cc(Cl)c(Cl)cc2Cl)cc1
dose: 100.0 mg/kg/injection, schedule: Q01DX001 (ip), vehicle: gum acacia
  T/C: 96 % of control
dose: 200.0 mg/kg/injection, schedule: Q01DX001 (ip), vehicle: gum acacia
  T/C: 93 % of control
dose: 400.0 mg/kg/injection, schedule: Q01DX001 (ip), vehicle: gum acacia
  T/C: 95 % of control

## NC1[N-]C(C2CCCC[N-]2)CC2CCCCC21.O=[N+]([O-])O.O=[N+]([O-])O.[Cu+2] (centres undefined)
dose: 6.25 mg/kg/injection, schedule: Q04DX002 (ip), vehicle: suspension in saline
  T/C: 103 % of control
dose: 12.5 mg/kg/injection, schedule: Q04DX002 (ip), vehicle: suspension in saline
  T/C: 111 % of control

## C[Si](C)(C)Cn1cccc1
[5]
  T/C: 103 % of control
[6]
  T/C: 102 % of control
[7]
  T/C: 94 % of control

## N#CC(C#N)=C1SCCCS1
[11]
  T/C: 105 % of control
[12]
  T/C: 95 % of control
[13]
  T/C: 98 % of control

## O=[N+]([O-])c1cc(S(=O)(=O)NCc2ccco2)ccc1N/N=C/c1ccccn1
[14]
  T/C: 86 % of control

## CN1C=[N+](C)Cc2nnn(Cc3ccccc3)c21
dose: 1.56 mg/kg/injection, schedule: Q01DX009 (ip), vehicle: saline
  T/C: 105 % of control
dose: 3.12 mg/kg/injection, schedule: Q01DX009 (ip), vehicle: saline
  T/C: 105 % of control
dose: 6.25 mg/kg/injection, schedule: Q01DX009 (ip), vehicle: saline
  T/C: 100 % of control

## COc1cccc(NC2=NCCS2)c1
[15]
  T/C: 102 % of control
[16]
  T/C: 105 % of control
dose: 200.0 mg/kg/injection, schedule: Q01DX005 (ip), vehicle: saline with Tween-80
  T/C: 98 % of control

## O=C1OCCc2c1[nH]c1ccccc21
[4]
  T/C: 100 % of control
dose: 200.0 mg/kg/injection, schedule: Q04DX002 (ip), vehicle: saline with Tween-80
  T/C: 100 % of control

## O=C1c2ccccc2C(=O)c2c1ccc1c2CCC1
dose: 7.5 mg/kg/injection, schedule: Q01DX009 (ip), vehicle: saline with Tween-80
  T/C: 97 % of control
dose: 15.0 mg/kg/injection, schedule: Q01DX009 (ip), vehicle: saline with Tween-80
  T/C: 95 % of control
dose: 30.0 mg/kg/injection, schedule: Q01DX009 (ip), vehicle: saline with Tween-80
  T/C: 105 % of control

## CN(C)CCC(=O)C(=Cc1c(Cl)cccc1Cl)C(=O)CCN(C)C
dose: 7.5 mg/kg/injection, schedule: Q01DX005 (ip), vehicle: saline
  T/C: 119 % of control and 120 % of control
dose: 15.0 mg/kg/injection, schedule: Q01DX005 (ip), vehicle: saline
  T/C: 120 % of control and 123 % of control

## C=CCN(CC=C)CCSC(=S)NCCOC
dose: 100.0 mg/kg/injection, schedule: Q04DX003 (ip), vehicle: saline with Tween-80
  T/C: 100 % of control
dose: 200.0 mg/kg/injection, schedule: Q04DX003 (ip), vehicle: saline with Tween-80
  T/C: 95 % of control

## C=CCn1c(=O)c2[nH]c(Cl)nc2n(CC=C)c1=O
dose: 25.0 mg/kg/injection, schedule: Q01DX009 (ip), vehicle: Klucel (hydroxypropylcellulose) (HPC)
  T/C: 105 % of control
[17]
  T/C: 100 % of control
[18]
  T/C: 108 % of control

## COc1cccc(C(Cc2ccccc2)Nc2ccccc2)c1OC (centres undefined)
dose: 3.0 mg/kg/injection, schedule: Q01DX005 (ip), vehicle: Klucel (hydroxypropylcellulose) (HPC)
  T/C: 94 % of control
dose: 6.0 mg/kg/injection, schedule: Q01DX005 (ip), vehicle: Klucel (hydroxypropylcellulose) (HPC)
  T/C: 93 % of control
dose: 12.0 mg/kg/injection, schedule: Q01DX005 (ip), vehicle: Klucel (hydroxypropylcellulose) (HPC)
  T/C: 93 % of control
[8]
  T/C: 92 % of control
[10]
  T/C: 88 % of control

## CN(C)CC1(C)C(=O)N(C)C(=O)N(C2CCCCC2)C1=O (centres undefined)
[1]
  T/C: 100 % of control
dose: 25.0 mg/kg/injection, schedule: Q01DX009 (ip), vehicle: saline
  T/C: 100 % of control
[2]
  T/C: 107 % of control
[11]
  T/C: 104 % of control and 105 % of control
[3]
  T/C: 107 % of control
[12]
  T/C: 113 % of control
[14]
  T/C: 117 % of control
[13]
  T/C: 122 % of control

## C=C1COC(O)(C2OCOC(C3CC(=O)NC(=O)C3)C2O)C1C (centres undefined)
dose: 0.03 mg/kg/injection, schedule: Q01DX009 (ip), vehicle: water
  T/C: 107 % of control
dose: 2.0 micrograms/kg/injection, schedule: Q01DX009 (ip), vehicle: water
  T/C: 119 % of control
dose: 4.0 micrograms/kg/injection, schedule: Q01DX009 (ip), vehicle: water
  T/C: 119 % of control
dose: 7.5 micrograms/kg/injection, schedule: Q01DX009 (ip), vehicle: water
  T/C: 117 % of control
dose: 32.0 micrograms/kg/injection, schedule: Q01DX009 (ip), vehicle: water
  T/C: 181 % of control

## COc1cc([N+](=O)[O-])c(S(=O)(=O)O)cc1N=N/C=N/Nc1cc(S(=O)(=O)O)c([N+](=O)[O-])cc1OC
[8]
  T/C: 118 % of control
[9]
  T/C: 110 % of control
[10]
  T/C: 108 % of control

## O=CNNc1ccc2nnc(Cl)n2n1
dose: 100.0 mg/kg/injection, schedule: Q04DX003 (ip), vehicle: saline
  T/C: 101 % of control
dose: 200.0 mg/kg/injection, schedule: Q04DX003 (ip), vehicle: saline
  T/C: 97 % of control
dose: 400.0 mg/kg/injection, schedule: Q04DX003 (ip), vehicle: saline
  T/C: 93 % of control

## C/C=C1/CN2C3CC45c6ccccc6N(C)C4C2CC1C3C5O (centres undefined)
[15]
  T/C: 98 % of control
[16]
  T/C: 97 % of control

## C[CH2][Ge]([CH2]C)[O][Ge]([CH2]C)[CH2]C.c1cc[c]([Ge]([c]2ccccc2)[c]2ccccc2)cc1.c1cc[c]([Ge]([c]2ccccc2)[c]2ccccc2)cc1
[5]
  T/C: 88 % of control
[6]
  T/C: 98 % of control
[7]
  T/C: 98 % of control

## CC1(C)CC(=O)C=C(NCCCCNC2=CC(=O)CC(C)(C)C2)C1
[17]
  T/C: 95 % of control
[18]
  T/C: 95 % of control
dose: 200.0 mg/kg/injection, schedule: Q01DX009 (ip), vehicle: Klucel (hydroxypropylcellulose) (HPC)
  T/C: 95 % of control

## COc1cccc2c1C(CO)N1C(C#N)C3CC(C(=O)O)C(C1C2)N3C (centres undefined)
dose: 0.78 mg/kg/injection, schedule: Q01DX005 (ip), vehicle: suspension in saline
  T/C: 116 % of control and 122 % of control
dose: 1.56 mg/kg/injection, schedule: Q01DX005 (ip), vehicle: suspension in saline
  T/C: 122 % of control
dose: 3.12 mg/kg/injection, schedule: Q01DX005 (ip), vehicle: saline
  T/C: 150 % of control
dose: 6.25 mg/kg/injection, schedule: Q01DX005 (ip), vehicle: saline
  T/C: 157 % of control
dose: 6.25 mg/kg/injection, schedule: Q01DX005 (ip), vehicle: suspension in saline
  T/C: 159 % of control
dose: 12.5 mg/kg/injection, schedule: Q01DX005 (ip), vehicle: saline
  T/C: 160 % of control
dose: 12.5 mg/kg/injection, schedule: Q01DX005 (ip), vehicle: suspension in saline
  T/C: 150 % of control and 178 % of control and 186 % of control
dose: 25.0 mg/kg/injection, schedule: Q01DX005 (ip), vehicle: saline
  T/C: 200 % of control

## Cc1cc(Br)c(O)c(C(=NCC(C)N=C(c2ccccc2)c2cc(C)cc(Br)c2O)c2ccccc2)c1 (centres undefined)
dose: 25.0 mg/kg/injection, schedule: Q01DX005 (ip), vehicle: Klucel (hydroxypropylcellulose) (HPC)
  T/C: 100 % of control
[8]
  T/C: 96 % of control
[9]
  T/C: 100 % of control
[10]
  T/C: 96 % of control
